Test results as given in patent US20130012432A1, “Peptides for Treatment of Obesity” (Novo Nordisk A/S, priority 2010, published 2013).
≈ marks a conversion by molar mass, not a printed value. Positions of bridges follow the written chain, without caps; N, C: chain ends. Non-standard residues stand in square brackets, D forms with d. Residues, ends and D or L forms follow the SMILES beside them. Groups on a side chain read outwards from the residue. *: point of attachment. Palmitoyl(16-(5-tetrazolyl)) = O=C(CCCCCCCCCCCCCCCc1nnn[nH]1)*; Lys(CH2CO2H)2 = N[C@@H](CCCCN(CC(=O)O)CC(=O)O)C(=O)O; X1 = O=C(O)CCCCCCCCCCCCCCCCC(=O)NCCOCCOCCN*; C17 diacid = O=C(O)CCCCCCCCCCCCCCCC(=O)*; Orn = NCCC[C@H](N)C(=O)O; Dab = NCC[C@H](N)C(=O)O; AEEA = NCCOCCOCC(=O)O

What was measured:
physchem = test: physchem
Protocol: From a stock solution in vehicle, either H2O or 10 mM phosphate, containing 1 mg (as weighed) compound per ml, 8-11 aliquots are withdrawn and pH-adjusted individually with HCl/NaOH, to cover the whole pH range.

MC1 receptor = MC1 receptor (Homo sapiens, UniProt Q01726); test: biochemical
MC1 receptor, sequence (Q01726 whole entry): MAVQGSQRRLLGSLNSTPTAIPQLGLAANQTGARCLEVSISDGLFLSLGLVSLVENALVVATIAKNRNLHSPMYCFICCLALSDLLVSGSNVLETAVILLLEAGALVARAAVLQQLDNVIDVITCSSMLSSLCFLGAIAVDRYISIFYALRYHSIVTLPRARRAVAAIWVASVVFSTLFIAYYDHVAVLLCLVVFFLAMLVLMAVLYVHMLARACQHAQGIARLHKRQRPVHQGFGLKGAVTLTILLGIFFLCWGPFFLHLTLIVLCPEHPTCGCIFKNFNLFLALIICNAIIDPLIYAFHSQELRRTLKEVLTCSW
Protocol: Assay (IV)—Melanocortin Receptor 1 (MC1) Binding Assay
The MC1 receptor binding assay was performed on BHK cell membranes stably expressing the MC1 receptor. The assay was performed in a total volume of 250 μl: 25 μl of ^125NDP-α-MSH (22 pM in final concentration), 25 μl of test compound/control and 200 μl of cell membrane (25 μg/ml). Test compounds were dissolved in DMSO. Radioactively labeled ligand, membranes and test compounds were diluted in buffer: 25 mM HEPES, pH 7.4, 0.1 mM CaCl2, 1 mM MgSO4, 1 mM EDTA, 0.1% HSA and 0.005% Tween™ 20. Alternatively, HSA may be substituted with ovalbumin. The samples were incubated at 30° C. for 90 min. in Costar round-bottom microtiter plates. Incubation was terminated by filtration on a Packard harvester filtermate. Rapid filtration through Packard Unifilter-96 GF/B filters pre-treated with polyetylenimine (PerkinElmer 6005277). The filters were washed with ice-cold 0.9% NaCl 8-10 times. The plates were air-dried at app. 55° C. for 30 min, and 50 μl Microscint 0 (Packard, cat. No. 6013616) was added to each well. The plates were counted in a Topcounter (1 min/well).
The data were analysed by non-linear regression analysis of binding curves, using the Windows™ program GraphPad™ Prism (GraphPad Software, USA).

Row | Compound | solubility (physchem; pH 6.6, Solubility Conc.) [µM] | solubility (physchem; pH 6.7, Solubility Conc.) [µM] | solubility (physchem; pH 7.2, Solubility Conc.) [µM] | solubility (physchem; pH 7.4, Solubility Conc.) [µM] | solubility (physchem; pH 7.6, Solubility Conc.) [µM] | solubility (physchem; pH 8, Solubility Conc.) [µM] | Ki (MC1 receptor) [µM] | solubility (physchem; pH 5.3, Solubility Conc.) [µM] | solubility (physchem; pH 7.3, Solubility Conc.) [µM] | solubility (physchem; pH 7.7, Solubility Conc.) [µM] | solubility (physchem; pH 6, Solubility Conc.) [µM] | solubility (physchem; pH 6.4, Solubility Conc.) [µM] | solubility (physchem; pH 7, Solubility Conc.) [µM] | other results
1 | CC(=O)N[C@H]1CCCCNC(=O)CC[C@@H](C(=O)N2CCC[C@H]2C(=O)N2CCC[C@H]2C(=O)N[C@@H](Cc2c[nH]cn2)C(=O)N[C@@H](CCC(=O)O)C(=O)N[C@@H](CCCCN(CC(=O)O)CC(=O)O)C(=O)N[C@@H](CCCCNC(=O)COCCOCCNC(=O)CCCCCCCCCCCCCCCC(=O)O)C(N)=O)NC(=O)[C@H](Cc2c[nH]c3ccccc23)NC(=O)[C@H](CCCNC(=N)N)NC(=O)[C@@H](Cc2ccccc2)NC(=O)[C@H](Cc2c[nH]cn2)NC1=O [Example 7, Ac-c[Lys-His-D-Phe-Arg-Trp-Glu]-Pro-Pro-His-Glu-Lys(biscarboxymethyl)-Lys({2-[2-(16-carboxyhexadecanoylamino)ethoxy]ethoxy}acetyl)-NH2] (Ac-KH[dF]RWEPPHE[Lys(CH2CO2H)2]K([AEEA-C17 diacid])-NH2; lactam 1-6) | 295 (≈ 645 µg/mL) | 408 (≈ 892 µg/mL) | 417 (≈ 911 µg/mL) | 438 (≈ 957 µg/mL) | 448 (≈ 979 µg/mL) | 436 (≈ 953 µg/mL) | > 10 | – | – | – | – | – | – | solubility (physchem; pH 5.8, Solubility Conc.): 121 µM (≈ 264 µg/mL); solubility (physchem; pH 6.3, Solubility Conc.): 173 µM (≈ 378 µg/mL); solubility (physchem; pH 6.9, Solubility Conc.): 434 µM (≈ 949 µg/mL)
2 | CC(=O)N[C@H]1CCNC(=O)C[C@@H](C(=O)N2CCC[C@H]2C(=O)N2CCC[C@H]2C(=O)N[C@@H](CCCNC(=N)N)C(=O)N[C@@H](CCC(=O)O)C(=O)N[C@@H](CCCCN(CC(=O)O)CC(=O)O)C(=O)N[C@@H](CO)C(=O)N[C@@H](CO)C(=O)NCCOCCOCCNC(=O)CCCCCCCCCCCCCCCCC(=O)O)NC(=O)[C@H](Cc2c[nH]c3ccccc23)NC(=O)[C@H](CCCNC(=N)N)NC(=O)[C@@H](Cc2ccccc2)NC(=O)[C@H](Cc2c[nH]cn2)NC1=O [Example 9, Ac-c[Dab-His-D-Phe-Arg-Trp-Asp]-Pro-Pro-Arg-Glu-Lys(biscarboxymethyl)-Ser-Ser-NH(2-{2-[2-(17-carboxyheptadecanoylamino)ethoxy]ethoxy}ethyl)] (Ac-[Dab]H[dF]RWDPPRE[Lys(CH2CO2H)2]SS-X1; lactam 1-6) | 79 (≈ 174 µg/mL) | – | – | 183 (≈ 404 µg/mL) | – | – | > 10 | 40 (≈ 88.3 µg/mL) | 158 (≈ 349 µg/mL) | 242 (≈ 534 µg/mL) | – | – | – | solubility (physchem; pH 4.7, Solubility Conc.): 26 µM (≈ 57.4 µg/mL); solubility (physchem; pH 5.2, Solubility Conc.): 22 µM (≈ 48.6 µg/mL); solubility (physchem; pH 7.9, Solubility Conc.): 259 µM (≈ 572 µg/mL); solubility (physchem; pH 8.2, Solubility Conc.): 280 µM (≈ 618 µg/mL)
3 | CC(=O)N[C@H]1CCCNC(=O)C[C@@H](C(=O)N2CCC[C@H]2C(=O)N2CCC[C@H]2C(=O)N[C@@H](Cc2c[nH]cn2)C(=O)N[C@@H](CCC(=O)O)C(=O)N[C@@H](CCCCN(CC(=O)O)CC(=O)O)C(=O)N[C@@H](CCCCNC(=O)COCCOCCNC(=O)CCCCCCCCCCCCCCCc2nnn[nH]2)C(N)=O)NC(=O)[C@H](Cc2c[nH]c3ccccc23)NC(=O)[C@H](CCCNC(=N)N)NC(=O)[C@@H](Cc2ccccc2)NC(=O)[C@H](Cc2c[nH]cn2)NC1=O [Example 10, Ac-c[Orn-His-D-Phe-Arg-Trp-Asp]-Pro-Pro-His-Glu-Lys(biscarboxymethyl)-Lys[(2-{2-[16-(tetrazol-5-yl)hexadecanoylamino]ethoxy}ethoxy)acetyl]-NH2] (Ac-[Orn]H[dF]RWDPPHE[Lys(CH2CO2H)2]K([AEEA-Palmitoyl(16-(5-tetrazolyl))])-NH2; lactam 1-6) | 287 (≈ 626 µg/mL) | 514 (≈ 1120 µg/mL) | – | 516 (≈ 1130 µg/mL) | – | 531 (≈ 1160 µg/mL) | > 10 | – | 517 (≈ 1130 µg/mL) | 521 (≈ 1140 µg/mL) | 35 (≈ 76.4 µg/mL) | 88 (≈ 192 µg/mL) | 517 (≈ 1130 µg/mL) | –
4 | CC(=O)N[C@H]1CCCCNC(=O)C[C@@H](C(=O)N2CCC[C@H]2C(=O)N2CCC[C@H]2C(=O)N[C@@H](CCCNC(=N)N)C(=O)N[C@@H](CC(=O)O)C(=O)N[C@@H](CCCCN(CC(=O)O)CC(=O)O)C(=O)N[C@@H](CCCCNC(=O)COCCOCCNC(=O)CCCCCCCCCCCCCCCc2nnn[nH]2)C(N)=O)NC(=O)[C@H](Cc2c[nH]c3ccccc23)NC(=O)[C@H](CCCNC(=N)N)NC(=O)[C@@H](Cc2ccccc2)NC(=O)[C@H](Cc2c[nH]cn2)NC1=O [Example 11, Ac-c[Lys-His-D-Phe-Arg-Trp-Asp]-Pro-Pro-Arg-Asp-Lys(biscarboxymethyl)-Lys[(2-{2-[16-(tetrazol-5-yl)hexadecanoylamino]ethoxy}ethoxy)acetyl]-NH2] (Ac-KH[dF]RWDPPRD[Lys(CH2CO2H)2]K([AEEA-Palmitoyl(16-(5-tetrazolyl))])-NH2; lactam 1-6) | – | – | 364 (≈ 801 µg/mL) | – | 472 (≈ 1040 µg/mL) | – | > 10 | 29 (≈ 63.8 µg/mL) | 479 (≈ 1050 µg/mL) | – | 25 (≈ 55 µg/mL) | 36 (≈ 79.2 µg/mL) | 147 (≈ 323 µg/mL) | solubility (physchem; pH 4.8, Solubility Conc.): 51 µM (≈ 112 µg/mL); solubility (physchem; pH 7.8, Solubility Conc.): 479 µM (≈ 1050 µg/mL)
